The results in this text go back to patent US20030032003A1, “IN VIVO SELECTION” (priority 2000, published 2003).

Like-named read-outs stand apart in the source and are kept apart here. Marks after values point to notes of the source that are not given here.

One data set concerns Hprt +/+ mice. Kind of data set: Biochemical analysis of mouse serum after 6TG. Format: in vivo. The note with it: 25 mg/kg single i.p., serum 14 days after treatment. How it is done: Serum biochemistry parameters analyzed included blood urea nitrogen (BUN), aspartate amino transferase (AST), alanine amino transferase (ALT), creatine kinase (CK), and alkaline phosphatase (AP). The analyses were performed at Tufts University Veterinary Medical Diagnosis Laboratory with the chemical analyser Hitachi 747. Blood was collected from the posterior vena cava of Hprt deficient mice that were either treated with water, 25, 500, or 720 mg/kg 6TG i.p. and wildtype mice administered 25 mg/kg 6TG.
Hprt wildtype mice were treated with the sublethal dose of 25 mg/kg 6TG and Hprt mutant mice were treated with the sublethal doses of […] 6TG. Serum samples taken 14 days after treatment were evaluated for the levels of blood urea nitrogen (BUN), aspartate amino transferase (AST), alanine amino transferase (ALT), creatine kinase (CK) and alkaline phosphatase (AP). Elevated BUN is associated with dehydratation and/or renal insufficiency. Elevated activities of ALT and AST are characteristic for liver damage particularly necrosis, cirrhosis and/or hepatitis and also muscle trauma or myocardial infarction or myositis. Elevated AP is associated mostly with increased bone marrow metabolism and also with hapatocellular damage during hepatitis. CK is predominantly located in muscles and therefore its increased activities are consequence of muscular trauma, myocardial infarction or myopathic disorders.

Data set [1] deals with Hprt+/+ mice, recipients of Hprt−/− bone marrow and non-recipient controls.
Description: Recipient Hprt+/+ female mice were irradiated with 950 cGy of X-rays 24 hours before transplantation.
Briefly, bone marrow was flushed from femora and tibiae with 2 ml of Dulbecco's modified Eagle medium (D-MEM) supplemented with 10% of FBS and 100 units/ml penicillin, 100 mg/ml streptomycin. The isolated cells from the donor mouse were washed with PBS and injected into the tail vein of female Hprt +/+ recipients.
6TG (2-amino-6-mercaptopurine Sigma) was suspended in sterile PBS with a final concentration of 0.5 mg/ml prior to each i.p. application. All mice, recipients of bone marrow transplant and non-recipient controls, were treated with the same 6TG dose regimen. All mice were treated one hour after transplantation of recipients with an initial dose of 6TG at 10 mg/kg body weight. After 7 days the animals were treated with 4 doses of 5 mg/kg b.w. in 48 hrs intervals and followed with 5 days of recovery period.
This regimen was repeated 2 times with doses 5 mg/kg and 3 times with doses of 10 mg/kg with 5 days recovery periods in between treatments. Another control group of transplanted animals was treated with the same amount of sterile PBS.
Data set [2] deals with embryos of C57BL6/J Hprt −/− females mated with wildtype Hprt +/o males. Format: in vivo. The note with it: for Offspring ♀ (Hprt +/−, sensitive) / Offspring ♂ (Hprt −/o, resistant): three i.p. injections of 20 mg/kg in 24 hrs intervals during gestation. How it is done: The animals were housed in standard plastic microisolator cages with wood-chip bedding. The room was maintained at 22° C. and 70% humidity and the light cycle was 12 hours. Water and mouse diet No:5015 (PMI Feeds, Inc., St. Louis, Mo.) was supplied ad libitum. All housing and treatment protocols were reviewed and approved by an institutional Animal Care Committee.
Hprt −/− females (5-8 weeks old) were mated with wildtype males and the presence of vaginal plugs was examined daily. The day when a plug appeared was considered to be day 1 of pregnancy and the male was separated. The pregnant dams were treated with three i.p. injections of 6-thioguanine (20 mg/kg) or in control matings with saline starting […] in 24 hrs intervals. Pregnant mice were examined daily until term. The gender of offsprings was first determined 24 days after delivery and confirmed at the time of weaning (4 weeks of age).
An experiment was designed to investigate whether one could select against Hprt wildtype embryos with 6-thioguanine. Female mice C57BL6/J Hprt −/− were mated with wildtype Hprt +/o males. Since the Hprt gene is located on the X chromosome the resulting male offspring will be Hprt −/o and therefore resistant to 6-thioguanine (6TG). On the other hand, female offspring will be Hprt +/− and thus sensitive to 6TG. 6TG (Sigma) was injected i.p. in three subsequential doses (20 mg/kg each) in 24 hrs intervals starting on the third day of gestation. Mice were screened two times daily for possible toxic effects.

`Nc1nc(S)c2[nH]cnc2n1` [6TG, 2-amino-6-merkaptopurine] gave an ALT in the data set with Hprt +/+ mice of 197 ± 66.8 u/l. In the data set with Hprt +/+ mice, this compound had an AP of 50.0 ± 33.4 u/l. Also, the AST with Hprt +/+ mice came to 256.3 ± 73.9 u/l. Also, the BUN in the data set on Hprt +/+ mice came to 45.0 ± 24.6 mg/dL. The compound also displayed a CK in the data set with Hprt +/+ mice of 73.3 ± 13.9 u/l. In addition, in data set [1] (6TG treated bone marrow (BM) recipients), the “toxic effect of 6TG” value is reported as “did not show any apparent toxic effect”. In addition, the body weight decrease result in data set [1] (6TG treated bone marrow recipients, first week after transplantation) is “about 10%”. In addition, the Body weight in data set [1] (Bone marrow recipients +6TG, week 1) was found to be 91; in data set [1] (Bone marrow recipients +6TG, week 2) it was 89; in data set [1] (Bone marrow recipients +6TG, week 3), 90; in data set [1] (Bone marrow recipients +6TG, week 4) it was 90; in data set [1] (Bone marrow recipients +6TG, week 5), 88; in data set [1] (Bone marrow recipients +6TG, week 6) it was 93. Also, the Body weight is 99 in data set [1] (Controls (non-recipients) +6TG, week 1); 100 in data set [1] (Controls (non-recipients) +6TG, week 2); 86* in data set [1] (Controls (non-recipients) +6TG, week 3, these mice died); 79* in data set [1] (Controls (non-recipients) +6TG, week 4, these mice died). For the same compound, the “loss of body weight” value in data set [1] (non-recipient controls, during 3 weeks of 6TG treatment) is given as 25%. The “Offspring ♀ (Hprt +/−, sensitive)” value in data set [2] (Dam 1T) and in data set [2] (Dam 2T) was 0 each time. Besides, the “Offspring ♂ (Hprt −/o, resistant)” value in data set [2] (Dam 1T) is 4; in data set [2] (Dam 2T) it was 2. Also, the “toxicity to the dams” value in data set [2] (Hprt −/− dams, three doses 20 mg/kg i.p.) is reported as “did not cause any apparent toxic symptoms or discomfort to the dams”. The male offspring delivered in data set [2] (two 6TG treated dams together) is 6.
